In patent US7772252B2, “Heterocyclic substituted carbonyl derivatives and their use as dopamine D3 receptor ligands” (Aventis Pharmaceuticals Inc., priority 2001, dated 2010):

Molecular target: T1, cloned human dopamine D3 receptors (Homo sapiens, UniProt P35462)
T1 construct: expressed in transfected cells; membrane homogenate
Experiment: [N-Methyl-3H]Spiroperidol binding to cloned human dopamine D3 receptors
Settings: read-out: D3 Ki
Outline: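 Radioligand displacement with [N-methyl-3H]spiroperidol was run on membranes from a high-expressing CHO clone carrying human D3. Membranes were prepared in 10% DMSO and stored at −80° C.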

T1 sequence (P35462 whole entry): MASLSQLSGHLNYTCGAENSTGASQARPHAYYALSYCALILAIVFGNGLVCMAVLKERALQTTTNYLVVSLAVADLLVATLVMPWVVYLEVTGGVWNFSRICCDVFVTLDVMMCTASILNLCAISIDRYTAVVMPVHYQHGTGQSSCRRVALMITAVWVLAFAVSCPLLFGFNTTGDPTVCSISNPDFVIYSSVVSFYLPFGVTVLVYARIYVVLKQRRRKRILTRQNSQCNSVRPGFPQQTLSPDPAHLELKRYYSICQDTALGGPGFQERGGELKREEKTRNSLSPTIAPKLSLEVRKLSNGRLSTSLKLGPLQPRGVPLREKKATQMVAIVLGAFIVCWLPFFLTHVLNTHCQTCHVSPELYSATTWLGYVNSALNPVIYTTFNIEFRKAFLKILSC

Ki [nM]	Compound
23	Cc1cc(C)c(CN2CCN(C(=O)C3CC3CN3CCC(c4noc5ccsc45)CC3)CC2)c(C)c1 (racemic) [compound 832194]
22.8	O=C(C1CC1CN1CCC(c2noc3ccsc23)CC1)N1CCN(CC2CCCCC2)CC1 (racemic) [compound 832195]
22.9	O=C(C1CC1CN1CCC(c2noc3ccsc23)CC1)N1CCN(C2CCCC2)CC1 (racemic) [compound 832196]
17.1	O=C(C1CC1CN1CCC(c2noc3ccsc23)CC1)N1CCN(CCCc2ccccc2)CC1 (racemic) [compound 832197]
5.81	O=C(C1CC1CN1CCC(c2noc3ccsc23)CC1)N1CCC(CCN2CCCC2)CC1 (racemic) [compound 832198]
11.5	O=C(NC1CCN(Cc2cccc(F)c2F)CC1)C1CC1CN1CCC(c2noc3ccsc23)CC1 (racemic) [compound 832340]
2.63	O=C(NC1CCN(CC2CC2)CC1)C1CC1CN1CCC(c2noc3ccsc23)CC1 (racemic) [compound 832341]
0.718	O=C(NC1CCN(Cc2cc(F)cc(F)c2)CC1)C1CC1CN1CCC(c2noc3ccsc23)CC1 (racemic) [compound 832343]
2.76	O=C(NC1CCN(Cc2ccc(F)cc2F)CC1)C1CC1CN1CCC(c2noc3ccsc23)CC1 (racemic) [compound 832344]
12.9	O=C(NC1CCN(Cc2cc(F)ccc2Cl)CC1)C1CC1CN1CCC(c2noc3ccsc23)CC1 (racemic) [compound 832346]
1.88	O=C(NC1CCN(Cc2cc(Cl)ccc2Cl)CC1)C1CC1CN1CCC(c2noc3ccsc23)CC1 (racemic) [compound 832347]
0.465	Cc1cccc(CN2CCC(NC(=O)C3CC3CN3CCC(c4noc5ccsc45)CC3)CC2)c1 (racemic) [compound 832348]
77.9	CC(C)(C)OC(=O)N1CCC(NC(=O)C2CC2CN2CCC(c3noc4ccsc34)CC2)CC1 (racemic) [compound 832391]
2.29	O=C(NC1CCN(Cc2ncc[nH]2)CC1)C1CC1CN1CCC(c2noc3ccsc23)CC1 (racemic) [compound 832392]
8.44	O=C(NC1CCN(Cc2ccncc2)CC1)C1CC1CN1CCC(c2noc3ccsc23)CC1 (racemic) [compound 832393]
8.32	O=C(NC1CCN(Cc2cccnc2)CC1)C1CC1CN1CCC(c2noc3ccsc23)CC1 (racemic) [compound 832394]
51.9	O=C(NCCSc1ccc(Cl)cc1)C1CC1CN1CCC(c2noc3ccsc23)CC1 (racemic) [compound 832397]
12.8	O=C(NC1CCN(C(=O)c2ccc(Cl)c(Cl)c2)CC1)C1CC1CN1CCC(c2noc3ccsc23)CC1 (racemic) [compound 832464]
66.1	O=C(NC1CCN(C(=O)c2ccc(Cl)s2)CC1)C1CC1CN1CCC(c2noc3ccsc23)CC1 (racemic) [compound 832487]
39.5	O=C(NC1CCN(C(=O)c2cccc(Cl)c2)CC1)C1CC1CN1CCC(c2noc3ccsc23)CC1 (racemic) [compound 832488]
95	CCN1CCN(C(=O)N2CCC(NC(=O)C3CC3CN3CCC(c4noc5ccsc45)CC3)CC2)C(=O)C1=O (racemic) [compound 832489]
40.6	O=C(NC1CCN(C(=O)c2ccc(Cl)nc2)CC1)C1CC1CN1CCC(c2noc3ccsc23)CC1 (racemic) [compound 832505]
1.04	CCN1CCC(NC(=O)C2CC2CN2CCC(c3noc4ccsc34)CC2)CC1 (racemic) [compound 833372]

Ki [nM]	Compound
55.4	CN1CCCC1CCNC(=O)[C@@H]1C[C@H]1CN1CCC(c2noc3ccsc23)CC1 (single isomer, unassigned) [compound 832513]
436	CC[C@H]1CC[C@H](NC(=O)C2(CCN3CCC(c4noc5ccsc45)CC3)CC2)CC1 [832242A]
1.05	CC[C@H]1CC[C@H](NC(=O)[C@@H]2C[C@H]2CN2CCN(c3nn(C)c4ccc(OC)cc34)CC2)CC1 [832747ES]
1150	C[C@H]1CC[C@H](N2CC(CN3CCN(c4noc5ccsc45)CC3)CC2=O)CC1 (some centres unmarked) [832831DA]
5.91	Cn1nc(N2CCN(C[C@@H]3C[C@H]3C(=O)N[C@H]3CC[C@H](O)CC3)CC2)c2sccc21 [8319560A]
1.51	O=C([C@@H]1C[C@H]1CN1CCC(c2noc3ccc(C(F)(F)F)cc23)CC1)N1CCC(Cn2ccnc2)CC1 [A002200836]
0.368	O=C(NCCCn1ccnc1)[C@@H]1C[C@H]1CN1CCC(c2noc3ccc(C(F)(F)F)cc23)CC1 [A002200837]
0.807	O=C(NCCCN1CCCCC1)[C@@H]1C[C@H]1CN1CCC(c2noc3ccc(C(F)(F)F)cc23)CC1 [A002200838]
119	Cn1nc(N2CCN(CCCC(=O)N[C@H]3CC[C@H](C)CC3)CC2)c2sccc21 [A002201941]
205	CCCCn1nc(N2CCN(C[C@@H]3C[C@H]3C(=O)NCCCn3ccnc3)CC2)c2sccc21 [A002202401]
86.8	Cn1nc(N2CCN(C[C@@H]3C[C@H]3C(=O)NCCCn3cnc4ccccc43)CC2)c2sccc21 [A002202403]
25.1	COc1ccc2c(c1)c(N1CCN(C[C@@H]3C[C@H]3C(=O)NCCCn3cnc4ccccc43)CC1)nn2C [A002243383]
133	O=C(NCCCn1cnc2ccccc21)[C@@H]1C[C@H]1CN1CCN(c2csc3cc(C(F)(F)F)ccc23)CC1 [A002243384]
661	O=C(NCCCn1cnc2ccccc21)[C@@H]1C[C@H]1CN1CCN(c2nn(-c3ccc(OC(F)(F)F)cc3)c3ccsc23)CC1 [A002243385]
492	O=C(N[C@H]1CC[C@H](O)CC1)[C@@H]1C[C@H]1CN1CCN(c2nn(-c3cccc(F)c3)c3ccsc23)CC1 [A002243404]
3.57	O=C(NC1CCNCC1)[C@@H]1C[C@H]1CN1CCC(c2csc3cc(C(F)(F)F)ccc23)CC1 [A002287513]
2.41	Cn1nc(N2CCN(C[C@@H]3C[C@H]3C(=O)NC3CCN(CC4CCCCC4)CC3)CC2)c2sccc21 [A002287757]
139	CN1CCN(CCCNC(=O)[C@@H]2C[C@H]2CN2CCN(c3nn(-c4ccc(OC(F)(F)F)cc4)c4ccsc34)CC2)CC1 [A002287758]
0.48	O=C(NCCCN1CCCCC1)[C@@H]1C[C@H]1CN1CCC(c2noc3cc(C(F)(F)F)ccc23)CC1 [A002287764]
0.011	O=C(NCCCn1ccnc1)[C@@H]1C[C@H]1CN1CCC(c2noc3cc(C(F)(F)F)ccc23)CC1 [A002287765, 2R-[4-(6-Trifluoromethyl-benzo[d]isoxazol-3-yl)-piperidin-1-ylmethyl]-1R-cycloproanecarboxylic acid (3-imidazol-1-yl-propyl)-amide]
126	O=C([C@@H]1C[C@H]1CN1CCC(c2noc3cc(C(F)(F)F)ccc23)CC1)N1CCC[C@@H](Cn2ccnc2)C1 [A002287766]
3.3	O=C(NCCCn1ccnc1)[C@@H]1C[C@H]1CN1CCC(c2nn(CC(F)(F)F)c3ccsc23)CC1 [A002287767, 2R-{4-[1-(2,2,20Trifluoro-ethyl)-1H-thieno[3,2-c]pyrazol-3-yl)-piperidin-1-ylmethyl]-1R-cycloproanecarboxylic acid (3-imidazol-1-yl-propyl)-amide]

Compound	Ki [nM]
O=C(NC1CCN(c2ncccc2C(F)(F)F)C1)C1CC1CN1CCC(c2noc3ccsc23)CC1 (racemic) [compound 832199]	18.7
C[C@H]1CC[C@H](NC(=O)C2(CCN3CCC(c4noc5ccsc45)CC3)CC2)CC1 [832241A]	51.8
